Structures can show the parent of a compound that is named as a salt. Where two headings read alike, the source gives them in different places.
Biological target: T1, 5-HT3 receptor (Rattus norvegicus, UniProt P35563)
T1 construct: Wistar strain male rats of 9 week age were anesthesized; from tissue; host or cells: whole anesthetized Wistar rat in vivo (endogenous receptor; cardiac vagal afferents by own knowledge)
T1 sequence (P35563 24-483): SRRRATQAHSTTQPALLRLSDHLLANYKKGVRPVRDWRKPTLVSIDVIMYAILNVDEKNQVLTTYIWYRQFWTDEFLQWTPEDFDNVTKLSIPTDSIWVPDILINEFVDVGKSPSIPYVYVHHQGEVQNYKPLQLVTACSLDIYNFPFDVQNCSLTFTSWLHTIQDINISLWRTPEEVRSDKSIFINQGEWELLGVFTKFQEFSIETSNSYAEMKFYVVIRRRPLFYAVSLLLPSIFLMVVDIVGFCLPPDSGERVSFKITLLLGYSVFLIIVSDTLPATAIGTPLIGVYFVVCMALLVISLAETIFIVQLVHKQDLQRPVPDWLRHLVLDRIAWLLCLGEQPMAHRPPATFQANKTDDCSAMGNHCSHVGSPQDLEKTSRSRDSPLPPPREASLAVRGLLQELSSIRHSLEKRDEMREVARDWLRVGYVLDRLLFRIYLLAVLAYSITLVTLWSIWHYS
Assay: Inhibition of serotonin- or 2-methylserotonin-induced Bezold-Jarisch (BJ) reflex in anesthetized rats (5-HT3-antagonizing activity)
Assay type: in vivo, Wistar strain male rats
Conditions: serotonin-induced BJ reflex in rats, read-out: BJ Reflex Inhibitory Activity (ED50)
Experimental: Wistar strain male rats of 9 week age were anesthesized with intraperitoneally administering 1 g/kg of urethane. Under artificial respiration, blood pressure and heart rate were measured. Transient reduction in heart rate and in blood pressure induced by intravenous administration of serotonin or 2-methylserotonin which is a selective agonist of 5-HT3 was used as an index for the reaction via 5-HT3 receptor (Bezold-Jarisch reflex : Paintal, A.S., Physiol. Rev., 53, 159, 1973).
Inhibitory activity of the compounds of the present invention on serotonin-induced Bezold-Jarisch (BJ) reflex in rats is shown in the table below.

| SMILES | ED50 (iv) | ED50 (po) |
| --- | --- | --- |
| COc1ccccc1NC(=O)C1CCc2[nH]cnc2C1 (racemic) [Example 1, N-(2-methyloxyphenyl) -4,5,6,7-tetrahydrobenzimidazole-5carboxamide fumarate 0.8hydrate] | 0.32 µg/kg | 5.9 µg/kg |
| CCOc1ccccc1NC(=O)C1CCc2nc[nH]c2C1.O=C(O)/C=C/C(=O)O (stereo not shown) [Example 13, N-(2-Ethoxyphenyl)-4,5,6,7-tetrahydrobenzimidazole-5-carboxamide fumarate] | 1.2 µg/kg | 6.6 µg/kg |
